Reference: ChEMBL document CHEMBL1154357, “Total synthesis of (-)-uniflorine A” (J Nat Prod, 2009)

Target: Sucrase-isomaltase, intestinal (Rattus norvegicus, UniProt P23739)
Experiment: Inhibition of rat intestinal sucrase

Sucrase-isomaltase, intestinal, sequence (P23739 1-1013 limits assumed): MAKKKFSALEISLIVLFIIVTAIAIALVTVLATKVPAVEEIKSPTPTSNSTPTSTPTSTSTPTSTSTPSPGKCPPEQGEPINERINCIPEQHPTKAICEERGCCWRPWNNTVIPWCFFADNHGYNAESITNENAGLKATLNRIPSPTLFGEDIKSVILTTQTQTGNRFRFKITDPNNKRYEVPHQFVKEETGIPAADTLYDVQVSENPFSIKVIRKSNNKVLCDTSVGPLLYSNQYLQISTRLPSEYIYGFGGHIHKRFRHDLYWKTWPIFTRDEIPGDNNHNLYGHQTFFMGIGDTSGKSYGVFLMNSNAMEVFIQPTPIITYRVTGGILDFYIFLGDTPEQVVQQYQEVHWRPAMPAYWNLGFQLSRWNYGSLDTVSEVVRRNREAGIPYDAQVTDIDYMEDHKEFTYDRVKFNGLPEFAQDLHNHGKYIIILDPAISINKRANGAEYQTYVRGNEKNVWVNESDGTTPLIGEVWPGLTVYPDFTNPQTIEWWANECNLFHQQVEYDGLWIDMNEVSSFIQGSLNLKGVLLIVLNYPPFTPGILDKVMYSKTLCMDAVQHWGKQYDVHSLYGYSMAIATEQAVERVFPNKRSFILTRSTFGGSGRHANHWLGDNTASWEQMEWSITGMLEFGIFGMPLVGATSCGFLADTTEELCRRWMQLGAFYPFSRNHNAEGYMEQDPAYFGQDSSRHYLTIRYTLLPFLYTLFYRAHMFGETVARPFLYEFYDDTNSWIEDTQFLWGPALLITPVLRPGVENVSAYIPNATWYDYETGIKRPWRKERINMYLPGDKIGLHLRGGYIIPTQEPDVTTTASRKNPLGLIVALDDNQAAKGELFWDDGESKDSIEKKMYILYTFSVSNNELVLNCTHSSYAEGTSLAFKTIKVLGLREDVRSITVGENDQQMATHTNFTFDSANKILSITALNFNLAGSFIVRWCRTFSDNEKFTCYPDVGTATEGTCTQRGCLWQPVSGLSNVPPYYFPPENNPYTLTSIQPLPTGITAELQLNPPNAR
Sucrase-isomaltase, intestinal, sequence (P23739 1014-1841 limits assumed): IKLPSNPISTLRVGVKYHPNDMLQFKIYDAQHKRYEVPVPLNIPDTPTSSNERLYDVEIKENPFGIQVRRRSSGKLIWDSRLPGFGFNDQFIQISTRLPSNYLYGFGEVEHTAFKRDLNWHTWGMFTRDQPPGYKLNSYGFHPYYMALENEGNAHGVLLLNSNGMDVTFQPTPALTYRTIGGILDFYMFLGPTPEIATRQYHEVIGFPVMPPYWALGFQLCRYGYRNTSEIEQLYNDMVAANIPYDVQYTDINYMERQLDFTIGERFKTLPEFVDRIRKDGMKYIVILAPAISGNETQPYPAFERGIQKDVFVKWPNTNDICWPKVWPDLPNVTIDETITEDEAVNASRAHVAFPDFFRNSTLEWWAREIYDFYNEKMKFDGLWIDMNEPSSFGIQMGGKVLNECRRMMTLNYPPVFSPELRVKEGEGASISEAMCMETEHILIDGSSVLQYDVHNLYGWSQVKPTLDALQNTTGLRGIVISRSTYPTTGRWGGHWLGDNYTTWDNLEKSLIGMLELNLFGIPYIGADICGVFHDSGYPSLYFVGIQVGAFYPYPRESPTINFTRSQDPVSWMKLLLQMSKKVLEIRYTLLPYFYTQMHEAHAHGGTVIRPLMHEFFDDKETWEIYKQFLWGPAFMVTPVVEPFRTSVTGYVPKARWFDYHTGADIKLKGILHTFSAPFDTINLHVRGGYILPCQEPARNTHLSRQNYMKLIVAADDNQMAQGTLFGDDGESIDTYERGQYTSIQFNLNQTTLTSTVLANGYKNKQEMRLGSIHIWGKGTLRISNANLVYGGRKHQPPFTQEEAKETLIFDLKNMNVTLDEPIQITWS

SMILES | IC50 [nM]
O[C@H]1[C@H](O)[C@@H](O)CN2C[C@@H](O)[C@@H](O)[C@H]12 | 3100
O[C@H]1[C@H]2[C@H](O)[C@H](O)CN2[C@H](O)C[C@H]1O [UNIFLORINE B] | 1800
